Experimental data as given in PubChem BioAssay AID1918941 (Molecular Pharmacology Branch, DTP, NCI, 2023).
Where “and” joins values, the source holds several entries; their conditions need not be identical. Identical values can stand only once. One block for each compound: values may come before it.

System: SW 1271 complex spheroids, viability
Assay: Anticancer human tumor SW 1271 cell line growth inhibition [LSD1];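 also: spheroids exposed to agents for 7 days before luminescence read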;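 as to viability, T/C: 100% = DMSO vehicle control viability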
Details: for viability, T/C: stronger effect = lower value; for IC50: curve of compound
Source text: Multicellular complex tumor spheroid response to LSD1 Inhibitor Iadademstat in combination with a variety of drugs and investigational agents in selected tumor cell lines
The current study was undertaken to assess response to LSD1 inhibitors in combination with standard-of-care drugs and investigational agents in solid tumor complex spheroid models as well as in the K-562 leukemia. Complex spheroids include a stromal component modeled by human endothelial cells (HUVEC) and fibroblasts modeled by human mesenchymal stem cells (MSCs). The concentration ranges selected for each drug and investigational agent were based upon clinically achievable concentrations if the clinical Cmax of the agent was known.
Compounds. The drugs and investigational agents used in this study are listed on Table 1. All of the agents used, including staurosporine (NSC755774) and gemcitabine (NSC613327), were obtained from the Developmental Therapeutics Program, NCI. FDA-approved anticancer drugs are available from the NCI at http://dtp.nci.nih.gov/branches/dscb/oncology_drugset_explanation.html. Drugs and investigational agents were >95% pure by proton nuclear magnetic resonance (NMR) and liquid chromatography/mass spectrometry (LC/MS). Stock solutions were prepared at 400x in DMSO, stored at -70 degrees C, and diluted in fresh medium prior to their use. The final concentration of DMSO in cell culture wells never exceeded 0.25% (v/v). The FDA-approved anticancer drug set is available from the Developmental Therapeutics Program at https://dtp.cancer.gov/organization/dscb/obtaining/available_plates.htm. All drugs and investigational agents were tested over a range starting from a high concentration at or near the clinical Cmax and decreasing in half-log increments. If the clinical Cmax for an agent had not been determined, the highest concentration tested was 10 microM.
Cell Lines. The patient-derived cancer cell (PDC) lines: 292921-168-R-J2-PDC, K24384-001-R-PDC, and 521955-158-R2-J5-PDC pancreatic carcinomas, 556581-035-R-J1 ovarian carcinoma, 324938-238-R-J1-PDC, 855422-203-R-J1-PDC and 883617-216-R-J1-PDC urothelial bladder carcinomas, 743489-274-T-PDC renal cell carcinoma, 138582-R-J1 Merkel cell tumor, K60290-347-R-J1 and K57222-313-R-J1-PDC glioblastomas, 653999-131-R-J2-PDC, LG0703-F948-PDC, and 349418-098-R-PDC non-small cell lung carcinomas, 885512-296-R-J2-PDC, 171881-019-R-J1-PDC breast carcinomas and 186277-243-T-J2-PDC and 233499-124-R-J2-PDC colon carcinomas were obtained from the NCI Patient-Derived Models Repository (PDMR, https://pdmr.cancer.gov). The established cell lines NCI/ADR-RES (RRID:CVCL_14520 and OVCAR-5 (RRID:CVCL_1628) ovarian carcinomas, 786-O (RRID:CVCL_1051) and A498 (RRID:CVCL_A498) renal cell carcinoma, NCI-H211 (ATCC, cat. CRL-5824; RRID:CVCL_1529), NCI-H196 (ATCC, cat. CRL-5823, RRID:CVCL_1509), SW 1271 (ATCC, cat. CRL-2177, RRID:CVCL_1716) and NCI-H1876 (ATCC, cat. CRL-5902, RRID:CVCL_1503) small cell lung carcinomas, MDA-MB-231 (RRID:CVCL_0062) and MDA-MB-468 (RRID:CVCL_0419)breast carcinomas (10-12). Pooled donor human umbilical vein endothelial cells (HUVEC, Lonza, cat. CC-2519) and human mesenchymal stem cells (hMSC, Lonza, cat. PT-2501) were purchased from Lonza (Walkersville, MD).
Cell Culture. All cells were maintained in an incubator at 37 degrees C and 5% CO2 with 95% humidity. The PDC lines were cultured according to standard operating procedures established by the NCI PDMR (https://pdmr.cancer.gov). Briefly all PDCs were thawed and cultured in Matrigel-coated flasks prepared with a working solution of 1X Ham's F-12 nutrient mix, without supplementation (Invitrogen, Waltham, MA, cat. 11765054), 100 U/mL penicillin-streptomycin (Invitrogen, cat. 15140122), and 2.5% Matrigel (Corning Inc., Corning, NY, cat. 354248) for the first three passages. […]

IC50: < 0.316 nM
SMILES: CC(C)CC(NC(=O)C(Cc1ccccc1)NC(=O)c1cnccn1)B(O)O (centres undefined)
viability, T/C (compound 0.000316 µM): 1.55% and 4.22%
viability, T/C (compound 0.001 µM): 0.42% and 0.29%
viability, T/C (compound 0.00316 µM): 0.34% and 0.36%
viability, T/C (compound 0.01 µM): 0.16% and 0.3%
viability, T/C (compound 0.0316 µM): 0.16% and 0.18%
viability, T/C (compound 0.1 µM): 0.24% and 0.23%

IC50: 4.78 nM and 5.84 nM
SMILES: CC(C)CC(NC(=O)CNC(=O)c1cc(Cl)ccc1Cl)B1OC(=O)CC(CC(=O)O)(C(=O)O)O1 (centres undefined)
viability, T/C (compound 0.000316 µM): 99.2% and 97.3%
viability, T/C (compound 0.001 µM): 91.3% and 86.2%
viability, T/C (compound 0.00316 µM): 74.4% and 88%
viability, T/C (compound 0.01 µM): 6.54% and 16.7%
viability, T/C (compound 0.0316 µM): 0.32% and 0.39%
viability, T/C (compound 0.1 µM): 0.31% and 0.4%

IC50: > 100 nM
SMILES: CC[C@@]1(O)C(=O)OCc2c1cc1n(c2=O)Cc2cc3c(CN(C)C)c(O)ccc3nc2-1
viability, T/C (compound 0.000316 µM): 88.2% and 98.2%
viability, T/C (compound 0.001 µM): 89.6% and 109%
viability, T/C (compound 0.00316 µM): 72.7% and 75.3%
viability, T/C (compound 0.01 µM): 66.6% and 85.6%
viability, T/C (compound 0.0316 µM): 58.7% and 65.7%
viability, T/C (compound 0.1 µM): 49.4% and 53.2%

IC50: 3.64 nM and < 0.949 nM
SMILES: CCc1c2c(nc3ccc(O)cc13)-c1cc3c(c(=O)n1C2)COC(=O)[C@]3(O)CC
viability, T/C (compound 0.000949 µM): 57.8% and 46.7%
viability, T/C (compound 0.003 µM): 55.8% and 41.6%
viability, T/C (compound 0.00949 µM): 23.3% and 28.8%
viability, T/C (compound 0.03 µM): 7.65% and 6.53%
viability, T/C (compound 0.0949 µM): 6.15% and 5.62%
viability, T/C (compound 0.3 µM): 3.93% and 13.3%

IC50: 179 nM and 164 nM
SMILES: COc1cc(Nc2ncc3c(n2)-c2ccc(Cl)cc2C(c2c(F)cccc2OC)=NC3)ccc1C(=O)O
viability, T/C (compound 0.00316 µM): 92.2% and 73.8%
viability, T/C (compound 0.01 µM): 86.8% and 78.9%
viability, T/C (compound 0.0316 µM): 72.8% and 73.9%
viability, T/C (compound 0.1 µM): 58.6% and 59%
viability, T/C (compound 0.316 µM): 42.5% and 36.9%
viability, T/C (compound 1 µM): 14.1% and 15.6%

IC50: > 100 nM
SMILES: Cn1ncnc1C1c2n[nH]c(=O)c3cc(F)cc(c23)NC1c1ccc(F)cc1 (centres undefined)
viability, T/C (compound 0.000316 µM): 89.1% and 97.2%
viability, T/C (compound 0.001 µM): 94.9% and 81.7%
viability, T/C (compound 0.00316 µM): 87.8% and 87%
viability, T/C (compound 0.01 µM): 91.1% and 85%
viability, T/C (compound 0.0316 µM): 84.2% and 92.2%
viability, T/C (compound 0.1 µM): 91.7% and 99.5%

IC50: > 3000 nM
SMILES: NS(=O)(=O)OCC1CC(n2ccc3c(NC4CCc5ccccc54)ncnc32)CC1O (centres undefined)
viability, T/C (compound 0.00949 µM): 159% and 149%
viability, T/C (compound 0.03 µM): 127% and 122%
viability, T/C (compound 0.0949 µM): 83.5% and 85.6%
viability, T/C (compound 0.3 µM): 89.7% and 67.7%
viability, T/C (compound 0.949 µM): 73.1% and 74.3%
viability, T/C (compound 3 µM): 82.1% and 73.2%

More lines, now with the values behind:

SMILES: CC1COCCN1c1cc(-c2ccnn2C)c2ccnc(-c3ccn[nH]3)c2n1 (centres undefined)
viability, T/C (compound 0.00316 µM): 72.4% and 71.8%
viability, T/C (compound 0.01 µM): 72.6% and 63.3%
viability, T/C (compound 0.0316 µM): 50.7% and 59%
viability, T/C (compound 0.1 µM): 50.3% and 47.2%
viability, T/C (compound 0.316 µM): 48.2% and 43.4%
viability, T/C (compound 1 µM): 30.1% and 28.4%
IC50: 108 nM and 92.1 nM

SMILES: COc1cc(C2c3cc4c(cc3C(OC3OC5COC(C)OC5C(O)C3O)C3COC(=O)C23)OCO4)cc(OC)c1O (centres undefined)
viability, T/C (compound 0.00949 µM): 84.9% and 100%
viability, T/C (compound 0.03 µM): 79.2% and 82.9%
viability, T/C (compound 0.0949 µM): 72.4% and 64.1%
viability, T/C (compound 0.3 µM): 83.9% and 64.4%
viability, T/C (compound 0.949 µM): 62.5% and 66.3%
viability, T/C (compound 3 µM): 54.7% and 53.3%
IC50: > 3000 nM

SMILES: Nc1ccccc1NC(=O)c1ccc(CNC(=O)OCc2cccnc2)cc1
viability, T/C (compound 0.00949 µM): 90.7% and 84.4%
viability, T/C (compound 0.03 µM): 83.4% and 69.1%
viability, T/C (compound 0.0949 µM): 61.4% and 59.8%
viability, T/C (compound 0.3 µM): 35.6% and 29.2%
viability, T/C (compound 0.949 µM): 10.2% and 7.11%
viability, T/C (compound 3 µM): 6.48% and 7.88%
IC50: 156 nM and 127 nM

SMILES: Nc1ccn(C2OC(CO)C(O)C2(F)F)c(=O)n1 (centres undefined)
viability, T/C (compound 0.000949 µM): 73.7% and 82.6%
viability, T/C (compound 0.003 µM): 73.8% and 71.3%
viability, T/C (compound 0.00949 µM): 64.3% and 67.8%
viability, T/C (compound 0.03 µM): 66% and 66.1%
viability, T/C (compound 0.0949 µM): 67.3% and 68.9%
viability, T/C (compound 0.3 µM): 64.6% and 74.8%
IC50: > 300 nM

SMILES: Nc1ncn(C2CC(O)C(CO)O2)c(=O)n1 (centres undefined)
viability, T/C (compound 0.00316 µM): 96% and 88.2%
viability, T/C (compound 0.01 µM): 86.6% and 105%
viability, T/C (compound 0.0316 µM): 83.1% and 88.3%
viability, T/C (compound 0.1 µM): 86.9% and 93.3%
viability, T/C (compound 0.316 µM): 83% and 80.3%
viability, T/C (compound 1 µM): 86.7% and 89.8%
IC50: > 1000 nM

SMILES: Nc1ncn(C2CC(O)C(CO)S2)c(=O)n1 (centres undefined)
viability, T/C (compound 0.000949 µM): 105% and 83.6%
viability, T/C (compound 0.003 µM): 112% and 88.6%
viability, T/C (compound 0.00949 µM): 99.5% and 86.3%
viability, T/C (compound 0.03 µM): 108% and 83.2%
viability, T/C (compound 0.0949 µM): 94.7% and 91.1%
viability, T/C (compound 0.3 µM): 88.5% and 71.2%
IC50: > 300 nM

SMILES: O=C(C=Cc1cccc(S(=O)(=O)Nc2ccccc2)c1)NO
viability, T/C (compound 0.00949 µM): 89.7% and 88.1%
viability, T/C (compound 0.03 µM): 74.9% and 70.5%
viability, T/C (compound 0.0949 µM): 57.1% and 58.1%
viability, T/C (compound 0.3 µM): 19.1% and 23.3%
viability, T/C (compound 0.949 µM): 9.01% and 12.3%
IC50: 228 nM and 109 nM

SMILES: O=C(C=Cn1cnc(-c2cc(C(F)(F)F)cc(C(F)(F)F)c2)n1)NNc1cnccn1
viability, T/C (compound 0.00316 µM): 92% and 82.7%
viability, T/C (compound 0.01 µM): 87.1% and 89.1%
viability, T/C (compound 0.0316 µM): 80% and 75.1%
viability, T/C (compound 0.1 µM): 45.3% and 51.4%
viability, T/C (compound 0.316 µM): 47.8% and 40.4%
viability, T/C (compound 1 µM): 21.6% and 16.6%
IC50: 153 nM and 147 nM
